Laboratory results published in ChEMBL document CHEMBL1150876, “Purpurediolin and purpurenin, two new cytotoxic adjacent bis-tetrahydrofuran annonaceous acetogenins from the seeds of Annona purpurea” (J Nat Prod, 1998).
In brackets after ≈: the same amount, converted by molar mass.

What was measured:
[1] = test system: Artemia salina; test: (§1) Toxicity in Artemia salina; format: organism-based; settings: in vivo
[2] = test system: A549; test: Cytotoxicity against human A549 cells after 7 days by MTT assay; format: functional; settings: for EC50: Homo sapiens, A549, 168 h, read-out: ED50 (the source's name)
[3] = test system: MCF7; test: Cytotoxicity against human MCF7 cells after 7 days by MTT assay; format: functional; settings: for EC50: Homo sapiens, MCF7, 168 h, read-out: ED50 (the source's name)
[4] = test system: HT-29; test: Cytotoxicity against human HT-29 cells after 7 days by MTT assay; format: functional; settings: for EC50: Homo sapiens, HT-29, 168 h, read-out: ED50 (the source's name)
[5] = test system: A498; test: Cytotoxicity against human A498 cells after 7 days by MTT assay; format: functional; settings: for EC50: Homo sapiens, A498, 168 h, read-out: ED50 (the source's name)
[6] = test system: PC-3; test: Cytotoxicity against human PC3 cells after 7 days by MTT assay; format: functional; settings: for EC50: Homo sapiens, PC-3, 168 h, read-out: ED50 (the source's name)
[7] = test system: MIA PaCa-2; test: Cytotoxicity against human MIAPaCa2 cells after 7 days by MTT assay; format: functional; settings: for EC50: Homo sapiens, MIA PaCa-2, 168 h, read-out: ED50 (the source's name)
[8] = as §1; format: organism-based; settings: in vivo, read-out: ED50 (the source's name)

Row | SMILES | ED50 [1] | EC50 [2] | EC50 [3] | EC50 [4] | EC50 [5] | EC50 [6] | EC50 [7] | ED50 [4] | LC50 [8] | ED50 [2] | ED50 [3] | ED50 [5] | ED50 [6] | ED50 [7]
1 | CCCCC[C@H](O)CCCC[C@H](O)[C@H]1CC[C@H]([C@H]2CC[C@H]([C@H](O)CCCC[C@H](O)CCCCCCCC3=C[C@H](C)OC3=O)O2)O1 [PURPURENIN] | 2.9 ×10⁻² ug/ml | 1.29 µg/mL (≈ 2.02 µM) | 1.67 µg/mL (≈ 2.61 µM) | 0.316 µg/mL (≈ 0.495 µM) | 1.25 µg/mL (≈ 1.96 µM) | 1.07 µg/mL (≈ 1.67 µM) | 1.98 µg/mL (≈ 3.1 µM) | – | – | – | – | – | – | –
2 | CCCCC[C@H](O)[C@H](O)CCC[C@H](O)[C@H]1CC[C@H]([C@H]2CC[C@H]([C@H](O)CCCCCCCCCCCCC3=C[C@H](C)OC3=O)O2)O1 [PURPUREDIOLIN] | 7 ×10⁻² ug/ml | 0.443 µg/mL (≈ 0.693 µM) | 0.916 µg/mL (≈ 1.43 µM) | – | 1.36 µg/mL (≈ 2.13 µM) | 0.353 µg/mL (≈ 0.552 µM) | 1.44 µg/mL (≈ 2.25 µM) | 1 ×10⁻⁷ ug/ml | – | – | – | – | – | –
3 | CCCCCCCCCC[C@H](O)[C@H]1CC[C@H]([C@H]2CC[C@H]([C@H](O)CCCC[C@H](O)CCCCC[C@@H](O)CC3=C[C@H](C)OC3=O)O2)O1 [ANNOGLAUCIN] | 2.2 ×10⁻² ug/ml | 1.08 µg/mL (≈ 1.69 µM) | 1.56 µg/mL (≈ 2.44 µM) | – | 1.01 µg/mL (≈ 1.58 µM) | 0.356 µg/mL (≈ 0.557 µM) | 1.45 µg/mL (≈ 2.27 µM) | 1 ×10⁻⁷ ug/ml | – | – | – | – | – | –
4 | COc1cccc2c1C(=O)c1c(O)c3c(c(O)c1C2=O)C[C@@](O)(C(=O)CO)C[C@@H]3O[C@H]1C[C@H](N)[C@H](O)[C@H](C)O1 [DOXORUBICIN] | – | 0.00367 µg/mL (≈ 0.00675 µM) | 0.212 µg/mL (≈ 0.39 µM) | 0.00966 µg/mL (≈ 0.0178 µM) | 0.00198 µg/mL (≈ 0.00364 µM) | 0.0227 µg/mL (≈ 0.0418 µM) | 0.00145 µg/mL (≈ 0.00267 µM) | – | – | – | – | – | – | –
5 | CCCCCCCCCCCC[C@@H](O)[C@H]1CC[C@H]([C@H](O)CCCC[C@H](O)CCCCC[C@@H](O)CC2=CC(C)OC2=O)O1 (some centres undefined) [ANNONACIN] | – | – | – | – | – | – | – | 1.18 µg/mL (≈ 1.98 µM) | 0.46 µg/mL (≈ 0.771 µM) | 1.32 µg/mL (≈ 2.21 µM) | 1.96 µg/mL (≈ 3.28 µM) | 1.16 µg/mL (≈ 1.94 µM) | 1.33 µg/mL (≈ 2.23 µM) | 1.9 µg/mL (≈ 3.18 µM)
